According to PubChem BioAssay (NCI):
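Cells were grown in 96-well plates and exposed to each compound for 48 hours at five concentrations; endpoints were interpolated linearly between bracketing concentrations, or set to the highest concentration if not reached. TGI is the concentration that stops growth completely.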

Tests used:
Test in all cases: inhibition of tumour cell growth, NCI panel, 48 h
786-0 renal = test system: 786-0 renal
A549 NSCLC = test system: A549 NSCLC
ACHN renal = test system: ACHN renal
CCRF-CEM leukemia = test system: CCRF-CEM leukemia
COLO 205 colon = test system: COLO 205 colon
DMS 114 small cell lung = test system: DMS 114 small cell lung
DMS 273 small cell lung = test system: DMS 273 small cell lung
EKVX NSCLC = test system: EKVX NSCLC
HCC-2998 colon = test system: HCC-2998 colon
HCT-116 colon = test system: HCT-116 colon
HCT-15 colon = test system: HCT-15 colon
HL-60(TB) leukemia = test system: HL-60(TB) leukemia
HOP-62 NSCLC = test system: HOP-62 NSCLC
IGROV1 ovarian = test system: IGROV1 ovarian
K-562 leukemia = test system: K-562 leukemia
KM12 colon = test system: KM12 colon
KM20L2 colon = test system: KM20L2 colon
LOX IMVI melanoma = test system: LOX IMVI melanoma
M14 melanoma = test system: M14 melanoma
M19-MEL melanoma = test system: M19-MEL melanoma
MALME-3M melanoma = test system: MALME-3M melanoma
MOLT-4 leukemia = test system: MOLT-4 leukemia
NCI-H23 lung = test system: NCI-H23 lung
NCI-H460 lung = test system: NCI-H460 lung
NCI-H522 lung = test system: NCI-H522 lung
OVCAR-3 ovarian = test system: OVCAR-3 ovarian
OVCAR-8 ovarian = test system: OVCAR-8 ovarian
RPMI-8226 leukemia = test system: RPMI-8226 leukemia
RXF 393 renal = test system: RXF 393 renal
SF-268 CNS = test system: SF-268 CNS
SF-295 CNS = test system: SF-295 CNS
SF-539 CNS = test system: SF-539 CNS
SK-MEL-28 melanoma = test system: SK-MEL-28 melanoma
SK-OV-3 ovarian = test system: SK-OV-3 ovarian
SN12C renal = test system: SN12C renal
SNB-19 CNS = test system: SNB-19 CNS
SNB-75 CNS = test system: SNB-75 CNS
SNB-78 CNS = test system: SNB-78 CNS
SW-620 colon = test system: SW-620 colon
TK-10 renal = test system: TK-10 renal
U251 CNS = test system: U251 CNS
UACC-257 melanoma = test system: UACC-257 melanoma
UACC-62 melanoma = test system: UACC-62 melanoma
UO-31 renal = test system: UO-31 renal
A498 renal = test system: A498 renal
DLD-1 colon = test system: DLD-1 colon
HOP-92 NSCLC = test system: HOP-92 NSCLC
HT29 colon = test system: HT29 colon
LXFL 529 NSCLC = test system: LXFL 529 NSCLC
NCI-H226 lung = test system: NCI-H226 lung
OVCAR-4 ovarian = test system: OVCAR-4 ovarian
OVCAR-5 ovarian = test system: OVCAR-5 ovarian
SK-MEL-2 melanoma = test system: SK-MEL-2 melanoma
SK-MEL-5 melanoma = test system: SK-MEL-5 melanoma
SR leukemia = test system: SR leukemia
XF 498 CNS = test system: XF 498 CNS
BT-549 breast = test system: BT-549 breast
CAKI-1 renal = test system: CAKI-1 renal
DU-145 prostate = test system: DU-145 prostate
HS 578T breast = test system: HS 578T breast
MCF7 breast = test system: MCF7 breast
MDA-MB-231 breast = test system: MDA-MB-231 breast
MDA-MB-435 = test system: MDA-MB-435
MDA-N = test system: MDA-N
NCI/ADR-RES ovarian = test system: NCI/ADR-RES ovarian
PC-3 prostate = test system: PC-3 prostate
T-47D breast = test system: T-47D breast

Compound `Brc1ccc(C[N+]23CN4CN(CN(C4)C2)C3)cc1` has a TGI (786-0 renal) of over 100 µM, a TGI (A549 NSCLC) of over 100 µM and a TGI (ACHN renal) of over 100 µM. For the same compound, the TGI (CCRF-CEM leukemia) was 62.9 µM, the TGI (COLO 205 colon) was 69.4 µM and the TGI (DMS 114 small cell lung) was 51.1 µM. It also gave a TGI (DMS 273 small cell lung) of 52.9 µM, a TGI (EKVX NSCLC) of over 100 µM and a TGI (HCC-2998 colon) of over 100 µM. For the same compound, the TGI (HCT-116 colon) was 79.8 µM, the TGI (HCT-15 colon) was 69 µM and the TGI (HL-60(TB) leukemia) was 58.2 µM. The TGI (HOP-62 NSCLC) was over 100 µM, the TGI (IGROV1 ovarian) was over 100 µM and the TGI (K-562 leukemia) was over 100 µM. For the same compound, the TGI (KM12 colon) was over 100 µM, the TGI (KM20L2 colon) was over 100 µM and the TGI (LOX IMVI melanoma) was 48 µM. The TGI (M14 melanoma) was 33 µM, the TGI (M19-MEL melanoma) was over 100 µM and the TGI (MALME-3M melanoma) was 71.5 µM. For the same compound, the TGI (MOLT-4 leukemia) was 69 µM, the TGI (NCI-H23 lung) was over 100 µM and the TGI (NCI-H460 lung) was over 100 µM. It also gave a TGI (NCI-H522 lung) of 32.1 µM, a TGI (OVCAR-3 ovarian) of over 100 µM and a TGI (OVCAR-8 ovarian) of 99.7 µM. For the same compound, the TGI (RPMI-8226 leukemia) was 59.5 µM, the TGI (RXF 393 renal) was 34.6 µM and the TGI (SF-268 CNS) was over 100 µM. For the same compound, the TGI (SF-295 CNS) was over 100 µM, the TGI (SF-539 CNS) was over 100 µM and the TGI (SK-MEL-28 melanoma) was over 100 µM. For the same compound, the TGI (SK-OV-3 ovarian) was over 100 µM, the TGI (SN12C renal) was 62.4 µM and the TGI (SNB-19 CNS) was over 100 µM. It also gave a TGI (SNB-75 CNS) of over 100 µM, a TGI (SNB-78 CNS) of over 100 µM and a TGI (SW-620 colon) of 82.3 µM. The TGI (TK-10 renal) was over 100 µM, the TGI (U251 CNS) was over 100 µM and the TGI (UACC-257 melanoma) was over 100 µM. For the same compound, the TGI (UACC-62 melanoma) was 30.5 µM and the TGI (UO-31 renal) was over 100 µM.

`COc1ccc(C2NC3=C(CCCC3)N2)cc1` was tested, and the TGI (786-0 renal) was over 100 µM, the TGI (A498 renal) was over 100 µM and the TGI (A549 NSCLC) was over 100 µM. The TGI (ACHN renal) was over 100 µM, the TGI (CCRF-CEM leukemia) was over 100 µM and the TGI (COLO 205 colon) was over 100 µM. It also gave a TGI (DLD-1 colon) of over 100 µM, a TGI (DMS 114 small cell lung) of over 100 µM and a TGI (DMS 273 small cell lung) of over 100 µM. For the same compound, the TGI (HCC-2998 colon) was over 100 µM, the TGI (HCT-116 colon) was over 100 µM and the TGI (HCT-15 colon) was over 100 µM. It also gave a TGI (HL-60(TB) leukemia) of 66 µM, a TGI (HOP-62 NSCLC) of over 100 µM and a TGI (HOP-92 NSCLC) of over 100 µM. It also gave a TGI (HT29 colon) of over 100 µM, a TGI (IGROV1 ovarian) of over 100 µM and a TGI (KM12 colon) of over 100 µM. For the same compound, the TGI (KM20L2 colon) was 80.8 µM, the TGI (LOX IMVI melanoma) was over 100 µM and the TGI (LXFL 529 NSCLC) was over 100 µM. For the same compound, the TGI (M14 melanoma) was over 100 µM, the TGI (M19-MEL melanoma) was over 100 µM and the TGI (MALME-3M melanoma) was over 100 µM. For the same compound, the TGI (MOLT-4 leukemia) was over 100 µM, the TGI (NCI-H226 lung) was over 100 µM and the TGI (NCI-H23 lung) was over 100 µM. The TGI (NCI-H460 lung) was over 100 µM, the TGI (NCI-H522 lung) was over 100 µM and the TGI (OVCAR-3 ovarian) was over 100 µM. The TGI (OVCAR-4 ovarian) was over 100 µM, the TGI (OVCAR-5 ovarian) was over 100 µM and the TGI (OVCAR-8 ovarian) was over 100 µM. For the same compound, the TGI (RPMI-8226 leukemia) was over 100 µM, the TGI (SF-268 CNS) was over 100 µM and the TGI (SF-295 CNS) was over 100 µM. It also gave a TGI (SF-539 CNS) of over 100 µM, a TGI (SK-MEL-2 melanoma) of over 100 µM and a TGI (SK-MEL-28 melanoma) of over 100 µM. The TGI (SK-MEL-5 melanoma) was 67.5 µM, the TGI (SK-OV-3 ovarian) was over 100 µM and the TGI (SN12C renal) was over 100 µM. The TGI (SNB-75 CNS) was over 100 µM, the TGI (SNB-78 CNS) was over 100 µM and the TGI (SR leukemia) was over 100 µM. The TGI (TK-10 renal) was over 100 µM, the TGI (U251 CNS) was over 100 µM and the TGI (UACC-257 melanoma) was over 100 µM. The TGI (UO-31 renal) was over 100 µM and the TGI (XF 498 CNS) was over 100 µM.

With `CCC1OC(=O)CC(O)C(C)C(OC2OC(C)CC(N(C)C)C2O)C(CC=O)CC(C)C(=O)/C=C/C2(C)OC2C1C` (stereo unspecified) the TGI (786-0 renal) was 40.9 µM, the TGI (A498 renal) was 71.8 µM and the TGI (A549 NSCLC) was over 100 µM. The TGI (ACHN renal) was 56.1 µM, the TGI (BT-549 breast) was 31.8 µM and the TGI (CAKI-1 renal) was 74.1 µM. For the same compound, the TGI (CCRF-CEM leukemia) was 26.2 µM, the TGI (COLO 205 colon) was 32.2 µM and the TGI (DU-145 prostate) was 61.2 µM. For the same compound, the TGI (EKVX NSCLC) was 44.8 µM, the TGI (HCC-2998 colon) was over 100 µM and the TGI (HCT-116 colon) was 31.6 µM. For the same compound, the TGI (HCT-15 colon) was 39.1 µM, the TGI (HL-60(TB) leukemia) was 32.4 µM and the TGI (HOP-62 NSCLC) was 71.7 µM. The TGI (HOP-92 NSCLC) was 64.6 µM, the TGI (HS 578T breast) was over 100 µM and the TGI (HT29 colon) was 38.3 µM. For the same compound, the TGI (IGROV1 ovarian) was 25.4 µM, the TGI (K-562 leukemia) was 24.3 µM and the TGI (KM12 colon) was 28.6 µM. For the same compound, the TGI (LOX IMVI melanoma) was 48 µM, the TGI (M14 melanoma) was over 100 µM and the TGI (MALME-3M melanoma) was 64.9 µM. It also gave a TGI (MCF7 breast) of 25 µM, a TGI (MDA-MB-231 breast) of 53.8 µM and a TGI (MDA-MB-435) of 40.3 µM. The TGI (MDA-N) was over 100 µM, the TGI (MOLT-4 leukemia) was 43.4 µM and the TGI (NCI-H226 lung) was 49.6 µM. The TGI (NCI-H23 lung) was 52.3 µM, the TGI (NCI-H460 lung) was over 100 µM and the TGI (NCI-H522 lung) was 54.9 µM. The TGI (NCI/ADR-RES ovarian) was 86.7 µM, the TGI (OVCAR-3 ovarian) was 59.1 µM and the TGI (OVCAR-5 ovarian) was over 100 µM. It also gave a TGI (OVCAR-8 ovarian) of 68.5 µM, a TGI (PC-3 prostate) of over 100 µM and a TGI (RPMI-8226 leukemia) of over 100 µM. For the same compound, the TGI (RXF 393 renal) was 56.1 µM, the TGI (SF-268 CNS) was 76.3 µM and the TGI (SF-295 CNS) was 77.1 µM. For the same compound, the TGI (SF-539 CNS) was 29.6 µM, the TGI (SK-MEL-2 melanoma) was over 100 µM and the TGI (SK-MEL-28 melanoma) was 42.3 µM. For the same compound, the TGI (SK-MEL-5 melanoma) was 29.3 µM, the TGI (SK-OV-3 ovarian) was 78.9 µM and the TGI (SN12C renal) was 39.1 µM. For the same compound, the TGI (SNB-19 CNS) was 30.6 µM, the TGI (SNB-75 CNS) was 40.8 µM and the TGI (SR leukemia) was 36.6 µM. The TGI (SW-620 colon) was 34.8 µM, the TGI (T-47D breast) was 48.6 µM and the TGI (U251 CNS) was 30.8 µM. It also gave a TGI (UACC-257 melanoma) of over 100 µM, a TGI (UACC-62 melanoma) of 28.9 µM and a TGI (UO-31 renal) of 80.4 µM.
